System: 857933-349-R-J2-PDC complex spheroids, viability
Experiment: Anticancer human tumor 857933-349-R-J2-PDC patient-derived colon adenocarcinoma cell line growth inhibition [GQUAD]
Conditions: for IC50: curve of first compound; for viability, T/C: stronger effect = lower value; active = viability on the fitted dose curve at most 10% of control; inactive = the rest
Summary of the method: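 Tumor cells were grown as complex spheroids with HUVEC endothelial cells and mesenchymal stem cells as stroma. G-quadruplex stabilizers were combined with targeted agents over half-log dilutions from near the clinical Cmax, or from 10 microM.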

[1] = second compound 0.0316 µM, first compound 0.0316 µM
[2] = second compound 0.0316 µM, first compound 0.316 µM
[3] = second compound 0.1 µM, first compound 0.0316 µM
[4] = second compound 0.1 µM, first compound 0.316 µM
[5] = second compound 0.316 µM, first compound 0.0316 µM
[6] = second compound 0.316 µM, first compound 0.316 µM
[7] = second compound 1 µM, first compound 0.0316 µM
[8] = second compound 1 µM, first compound 0.316 µM
[9] = second compound 3.16 µM, first compound 0.0316 µM
[10] = second compound 3.16 µM, first compound 0.316 µM
[11] = second compound 10 µM, first compound 0.0316 µM
[12] = second compound 10 µM, first compound 0.316 µM
[13] = second compound 0.0316 µM, first compound 0.1 µM
[14] = second compound 0.0316 µM, first compound 1 µM
[15] = second compound 0.0316 µM, first compound 3.16 µM
[16] = second compound 0.0316 µM, first compound 10 µM
[17] = second compound 0.1 µM, first compound 0.1 µM
[18] = second compound 0.1 µM, first compound 1 µM
[19] = second compound 0.1 µM, first compound 3.16 µM
[20] = second compound 0.1 µM, first compound 10 µM
[21] = second compound 0.316 µM, first compound 0.1 µM
[22] = second compound 0.316 µM, first compound 1 µM
[23] = second compound 0.316 µM, first compound 3.16 µM
[24] = second compound 0.316 µM, first compound 10 µM
[25] = second compound 1 µM, first compound 0.1 µM
[26] = second compound 1 µM, first compound 1 µM
[27] = second compound 1 µM, first compound 3.16 µM
[28] = second compound 1 µM, first compound 10 µM
[29] = second compound 3.16 µM, first compound 0.1 µM
[30] = second compound 3.16 µM, first compound 1 µM
[31] = second compound 3.16 µM, first compound 3.16 µM
[32] = second compound 3.16 µM, first compound 10 µM
[33] = second compound 10 µM, first compound 0.1 µM
[34] = second compound 10 µM, first compound 1 µM
[35] = second compound 10 µM, first compound 3.16 µM
[36] = second compound 10 µM, first compound 10 µM
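Note: spheroids exposed to compounds for one week before readout.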
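Throughout, for viability, T/C: percent viability relative to vehicle DMSO wells taken as 100%.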

Cn1ncnc1[C@H]1c2n[nH]c(=O)c3cc(F)cc(c23)N[C@@H]1c1ccc(F)cc1 + Cc1cnc(CNC(=O)c2c(=O)c3ccc(N4CCCN(C)CC4)nc3n3c2sc2ccccc23)cn1
inactive: viability, T/C (second compound 0.0316 µM, first compound 0.000999 µM) 88.5% | viability, T/C (second compound 0.0316 µM, first compound 0.00316 µM) 89.1% | viability, T/C (second compound 0.0316 µM, first compound 0.00999 µM) 93.4% | viability, T/C [1] 95% | viability, T/C (second compound 0.0316 µM, first compound 0.0999 µM) 88.9% | viability, T/C [2] 81.7% | viability, T/C (second compound 0.1 µM, first compound 0.000999 µM) 59.6% | viability, T/C (second compound 0.1 µM, first compound 0.00316 µM) 73.6% | viability, T/C (second compound 0.1 µM, first compound 0.00999 µM) 62.5% | viability, T/C [3] 71.9% | viability, T/C (second compound 0.1 µM, first compound 0.0999 µM) 73.5% | viability, T/C [4] 65.6% | viability, T/C (second compound 0.316 µM, first compound 0.000999 µM) 28.8% | viability, T/C (second compound 0.316 µM, first compound 0.00316 µM) 27.8% | viability, T/C (second compound 0.316 µM, first compound 0.00999 µM) 27.1% | viability, T/C [5] 22.5% | viability, T/C (second compound 0.316 µM, first compound 0.0999 µM) 29.8% | viability, T/C [6] 31.5%
> 316 nM: IC50 (second compound 0.0316 µM) | IC50 (second compound 0.1 µM)
< 0.999 nM: IC50 (second compound 0.316 µM) | IC50 (second compound 1 µM) | IC50 (second compound 3.16 µM) | IC50 (second compound 10 µM)
active: viability, T/C (second compound 1 µM, first compound 0.000999 µM) 7% | viability, T/C (second compound 1 µM, first compound 0.00316 µM) 5.78% | viability, T/C (second compound 1 µM, first compound 0.00999 µM) 5.4% | viability, T/C [7] 5.4% | viability, T/C (second compound 1 µM, first compound 0.0999 µM) 5.1% | viability, T/C [8] 5.12% | viability, T/C (second compound 3.16 µM, first compound 0.000999 µM) 2.09% | viability, T/C (second compound 3.16 µM, first compound 0.00316 µM) 2.13% | viability, T/C (second compound 3.16 µM, first compound 0.00999 µM) 2.38% | viability, T/C [9] 2.9% | viability, T/C (second compound 3.16 µM, first compound 0.0999 µM) 3.1% | viability, T/C [10] 2.73% | viability, T/C (second compound 10 µM, first compound 0.000999 µM) 1.74% | viability, T/C (second compound 10 µM, first compound 0.00316 µM) 2.35% | viability, T/C (second compound 10 µM, first compound 0.00999 µM) 2.39% | viability, T/C [11] 2.68% | viability, T/C (second compound 10 µM, first compound 0.0999 µM) 2.08% | viability, T/C [12] 2.52%

CC1COCCN1c1cc(C2(S(C)(=N)=O)CC2)nc(-c2ccnc3[nH]ccc23)n1 (stereo unspecified) + Cc1cnc(CNC(=O)c2c(=O)c3ccc(N4CCCN(C)CC4)nc3n3c2sc2ccccc23)cn1
active: viability, T/C [24] 10% | viability, T/C [7] 5.52% | viability, T/C [25] 6.04% | viability, T/C [8] 4.55% | viability, T/C [26] 3.48% | viability, T/C [27] 3.6% | viability, T/C [28] 4.17% | viability, T/C [9] 2.4% | viability, T/C [29] 2.9% | viability, T/C [10] 2.49% | viability, T/C [30] 1.88% | viability, T/C [31] 1.99% | viability, T/C [32] 2.82% | viability, T/C [11] 1.11% | viability, T/C [33] 1.51% | viability, T/C [12] 1.22% | viability, T/C [34] 1.75% | viability, T/C [35] 1.64% | viability, T/C [36] 2.19%
800 nM: IC50 (second compound 0.0316 µM)
327 nM: IC50 (second compound 0.1 µM)
inactive: viability, T/C [1] 82% | viability, T/C [13] 75.7% | viability, T/C [2] 72.3% | viability, T/C [14] 43.8% | viability, T/C [15] 42.1% | viability, T/C [16] 31.9% | viability, T/C [3] 56.5% | viability, T/C [17] 68.6% | viability, T/C [4] 45.8% | viability, T/C [18] 39.1% | viability, T/C [19] 34.4% | viability, T/C [20] 26.7% | viability, T/C [5] 26.8% | viability, T/C [21] 31.2% | viability, T/C [6] 20.8% | viability, T/C [22] 13.4% | viability, T/C [23] 10.6%
< 31.6 nM: IC50 (second compound 0.316 µM) | IC50 (second compound 1 µM) | IC50 (second compound 3.16 µM) | IC50 (second compound 10 µM)

COc1ccc([C@@H](O)c2cc(-c3ncnc4cc(N5CCOCC5)ccc34)c(F)cc2Cl)nn1 + Cc1[nH]c2ccc(F)cc2c1-c1nc2c3cccnc3c3ncccc3c2[nH]1
> 10000 nM: IC50 (second compound 0.0316 µM) | IC50 (second compound 0.316 µM) | IC50 (second compound 1 µM) | IC50 (second compound 3.16 µM) | IC50 (second compound 10 µM)
inactive: viability, T/C [1] 124% | viability, T/C [13] 98.5% | viability, T/C [2] 99.8% | viability, T/C [14] 82.2% | viability, T/C [15] 69.9% | viability, T/C [16] 51.6% | viability, T/C [3] 107% | viability, T/C [17] 108% | viability, T/C [4] 93.5% | viability, T/C [18] 87.8% | viability, T/C [19] 64.2% | viability, T/C [20] 48.1% | viability, T/C [5] 108% | viability, T/C [21] 91.1% | viability, T/C [6] 99.1% | viability, T/C [22] 90.8% | viability, T/C [23] 71.6% | viability, T/C [24] 58.1% | viability, T/C [7] 102% | viability, T/C [25] 98.8% | viability, T/C [8] 96.3% | viability, T/C [26] 99.4% | viability, T/C [27] 71.8% | viability, T/C [28] 52.7% | viability, T/C [9] 113% | viability, T/C [29] 96.5% | viability, T/C [10] 95.1% | viability, T/C [30] 94% | viability, T/C [31] 66.1% | viability, T/C [32] 52.2% | viability, T/C [11] 105% | viability, T/C [33] 94.1% | viability, T/C [12] 91.6% | viability, T/C [34] 79.9% | viability, T/C [35] 68.6% | viability, T/C [36] 51.9%
8660 nM: IC50 (second compound 0.1 µM)

— PubChem BioAssay AID2060491 (Molecular Pharmacology Branch, DTP, NCI, 2025)
